Each compound was assayed against T1, Urotensin-2 receptor (Rattus norvegicus, UniProt P49684) (assay: Binding affinity for rat urotensin-2 receptor).
T1 sequence (P49684 whole entry): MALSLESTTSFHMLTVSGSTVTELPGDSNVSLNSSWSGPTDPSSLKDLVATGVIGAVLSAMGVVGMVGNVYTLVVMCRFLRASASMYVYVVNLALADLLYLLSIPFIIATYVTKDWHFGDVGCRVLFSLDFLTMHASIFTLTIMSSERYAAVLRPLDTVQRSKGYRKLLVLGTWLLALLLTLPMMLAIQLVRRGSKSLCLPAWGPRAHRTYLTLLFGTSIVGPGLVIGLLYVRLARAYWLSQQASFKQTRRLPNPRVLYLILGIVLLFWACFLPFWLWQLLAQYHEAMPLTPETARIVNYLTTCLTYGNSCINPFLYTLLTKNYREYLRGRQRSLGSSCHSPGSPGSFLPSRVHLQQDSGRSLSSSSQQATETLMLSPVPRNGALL

Row | Ki [nM] | SMILES
1 | 3160 | CN(C)CCCOc1ccc(CN2CC[C@H](NC(=O)c3ccc(Cl)c(Cl)c3)C2)cc1

What follows are compounds tested against T2, Urotensin-2 receptor (Homo sapiens, UniProt Q9UKP6) (assay: Binding affinity using [125I]hU-II radioligand binding assay in HEK293 cell membranes expressing human Urotensin 2 receptor).
T2 sequence (Q9UKP6 whole entry): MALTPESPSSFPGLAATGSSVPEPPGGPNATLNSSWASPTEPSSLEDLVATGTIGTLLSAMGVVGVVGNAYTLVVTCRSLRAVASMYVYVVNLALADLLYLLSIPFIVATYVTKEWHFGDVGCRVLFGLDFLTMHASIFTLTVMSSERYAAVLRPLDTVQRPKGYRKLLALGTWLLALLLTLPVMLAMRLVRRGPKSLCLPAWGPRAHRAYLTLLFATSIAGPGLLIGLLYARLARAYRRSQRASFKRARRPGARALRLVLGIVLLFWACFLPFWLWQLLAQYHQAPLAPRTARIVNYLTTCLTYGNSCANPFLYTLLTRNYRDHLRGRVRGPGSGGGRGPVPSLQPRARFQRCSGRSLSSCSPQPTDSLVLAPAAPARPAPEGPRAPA

Row | SMILES | Ki [nM]
2 | CN(C)CCCOc1ccc(CN2CC[C@H](NC(=O)c3ccc4c(c3)OCO4)C2)cc1 | 2510
3 | CC(C)[C@H](NC(=O)c1ccc(Cl)c(Cl)c1)C(=O)N[C@H]1CCN(Cc2ccc(OCCCN(C)C)cc2)C1 | 794
4 | CN(C)CCCOc1ccc(CN2CC[C@H](NC(=O)c3ccncc3)C2)cc1 | > 10000
5 | CN(C)CCCOc1ccc(CN2CC[C@H](NC(=O)c3cc(Cl)cc(Cl)c3)C2)cc1 | 2000
6 | CC(=O)N[C@H]1CCN(Cc2ccc(OCCCN(C)C)cc2)C1 | > 10000
7 | CN(C)CCCOc1ccc(CN2CC[C@H](NC(=O)c3cccs3)C2)cc1 | > 10000
8 | CN(C)CCCOc1ccc(CN2CC[C@H](NC(=O)c3ccc(Br)cc3)C2)cc1 | 316
9 | Cc1cc(C(=O)N[C@H]2CCN(Cc3ccc(OCCCN(C)C)cc3)C2)ccc1Br | 631
10 | CC(C)C[C@H](NC(=O)c1cccs1)C(=O)N[C@H]1CCN(Cc2ccc(OCCCN(C)C)cc2)C1 | 398
11 | CN(C)CCCOc1ccc(CN2CC[C@H](NC(=O)c3ccc(Cl)c(Cl)c3)C2)cc1 | 200
12 | CN(C)CCCOc1ccc(CN2CC[C@H](NC(=O)[C@H](CCC(=O)O)NC(=O)c3ccc(Cl)c(Cl)c3)C2)cc1 | > 10000
13 | CC(C)C[C@H](NC(=O)Oc1ccccc1)C(=O)N[C@H]1CCN(Cc2ccc(OCCCN(C)C)cc2)C1 | 251
14 | CC(C)C[C@H](NC(=O)c1ccco1)C(=O)N[C@H]1CCN(Cc2ccc(OCCCN(C)C)cc2)C1 | 631
15 | CC(=O)N[C@@H](CC(C)C)C(=O)N[C@H]1CCN(Cc2ccc(OCCCN(C)C)cc2)C1 | 2510
16 | CN(C)CCCOc1ccc(CN2CC[C@H](NC(=O)c3cc4ccccc4o3)C2)cc1 | 2510
17 | CC(C)C[C@H](NC(=O)c1cc2ccccc2s1)C(=O)NC1CCN(Cc2ccc(OCCCN(C)C)cc2)C1 (single isomer, unassigned; 2a) | 126
18 | CC(C)C[C@H](NC(=O)c1cc2ccccc2o1)C(=O)NC1CCN(Cc2ccc(OCCCN(C)C)cc2)C1 (single isomer, unassigned; 2c) | 158
19 | CC(C)C[C@H](NC(=O)c1cc2ccccc2o1)C(=O)NC1CCN(Cc2ccc(OCCCN(C)C)cc2)C1 (single isomer, unassigned; 2d) | > 10000

Next, values leading:

Row | Ki [nM] | SMILES
20 | > 10000 | CN(C)CCCOc1ccc(CN2CC[C@H](NC(=O)c3ccco3)C2)cc1
21 | > 10000 | COc1ccc(C(=O)N[C@H]2CCN(Cc3ccc(OCCCN(C)C)cc3)C2)cc1OC
22 | > 10000 | CN(C)CCCOc1ccc(CN2CC[C@H](NC(=O)c3ccc(-c4ccccc4)cc3)C2)cc1
23 | 1000 | CC(C)C[C@H](NC(=O)Nc1ccccc1)C(=O)N[C@H]1CCN(Cc2ccc(OCCCN(C)C)cc2)C1
24 | 501 | CC(C)C[C@H](NC(=O)c1cc2ccccc2[nH]1)C(=O)N[C@H]1CCN(Cc2ccc(OCCCN(C)C)cc2)C1
25 | 200 | CC(C)C[C@H](NC(=O)c1ccc(Br)cc1)C(=O)N[C@H]1CCN(Cc2ccc(OCCCN(C)C)cc2)C1
26 | > 10000 | CN(C)CCCOc1ccc(CN2CC[C@H](NC(=O)CNC(=O)c3ccc(Cl)c(Cl)c3)C2)cc1
27 | > 10000 | Cc1ccc(C(=O)N[C@H]2CCN(Cc3ccc(OCCCN(C)C)cc3)C2)cc1C
28 | 126 | CC(C)C[C@H](NC(=O)c1ccc(Cl)c(Cl)c1)C(=O)N[C@H]1CCN(Cc2ccc(OCCCN(C)C)cc2)C1
29 | 501 | CC(C)C[C@H](NC(=O)c1ccc2c(c1)OCO2)C(=O)N[C@H]1CCN(Cc2ccc(OCCCN(C)C)cc2)C1
30 | > 10000 | CN(C)CCCOc1ccc(CN2CC[C@H](NC(=O)c3ccc(C(F)(F)F)cc3)C2)cc1
31 | > 10000 | CN(C)CCCOc1ccc(CN2CC[C@H](NC(=O)c3ccc(C#N)cc3)C2)cc1
32 | 631 | CC(C)C[C@H](NC(=O)c1ccc2ccccc2n1)C(=O)N[C@H]1CCN(Cc2ccc(OCCCN(C)C)cc2)C1
33 | 398 | CC(C)C[C@H](NC(=O)Cc1ccc2c(c1)OCO2)C(=O)N[C@H]1CCN(Cc2ccc(OCCCN(C)C)cc2)C1
34 | 631 | Cc1cc(C(=O)N[C@H]2CCN(Cc3ccc(OCCCN(C)C)cc3)C2)ccc1Cl
35 | > 10000 | CN(C)CCCOc1ccc(CN2CC[C@H](NC(=O)c3ccc4ccccc4c3)C2)cc1
36 | 501 | CC(C)C[C@H](NC(=O)c1ccccc1)C(=O)N[C@H]1CCN(Cc2ccc(OCCCN(C)C)cc2)C1
37 | 398 | CN(C)CCCOc1ccc(CN2CC[C@H](NC(=O)[C@H](Cc3ccccc3)NC(=O)c3ccc(Cl)c(Cl)c3)C2)cc1
38 | > 10000 | CN(C)CCCOc1ccc(CN2CC[C@H](NC(=O)[C@H](CCCCN)NC(=O)c3ccc(Cl)c(Cl)c3)C2)cc1
39 | 2510 | CN(C)CCCOc1ccc(CN2CC[C@H](NC(=O)c3ccccc3)C2)cc1
40 | 2000 | CC(C)C[C@H](NC(=O)c1ccncc1)C(=O)N[C@H]1CCN(Cc2ccc(OCCCN(C)C)cc2)C1
41 | 3160 | CC(C)C[C@@H](NC(=O)c1cc2ccccc2o1)C(=O)NC1CCN(Cc2ccc(OCCCN(C)C)cc2)C1 (single isomer, unassigned)
42 | > 10000 | CC(C)C[C@H](NC(=O)c1cc2ccccc2s1)C(=O)NC1CCN(Cc2ccc(OCCCN(C)C)cc2)C1 (single isomer, unassigned; 2b)

These compounds were tested against T2, Urotensin-2 receptor (assay: (§1) Inhibition of hU-II-mediated [Ca2+]i mobilization in HEK293 cells expressing human recombinant Urotensin 2 receptor in FLIPR assay).
Format: cell-based

Row | IC50 [nM] | SMILES
43 | 158 | CN(C)CCCOc1ccc(CN2CC[C@H](NC(=O)c3ccc(Cl)c(Cl)c3)C2)cc1

Each compound was assayed against T2, Urotensin-2 receptor (assay: as §1).
Format: functional, cell-based

Row | IC50 [nM] | SMILES
44 | 631 | CC(C)C[C@H](NC(=O)c1cc2ccccc2s1)C(=O)NC1CCN(Cc2ccc(OCCCN(C)C)cc2)C1 (single isomer, unassigned; 2a)

Each compound was assayed against T3, Urotensin-2 receptor (Macaca mulatta, UniProt Q8HYC3) (assay: Binding affinity for monkey urotensin-2 receptor).
T3 sequence (Q8HYC3 whole entry): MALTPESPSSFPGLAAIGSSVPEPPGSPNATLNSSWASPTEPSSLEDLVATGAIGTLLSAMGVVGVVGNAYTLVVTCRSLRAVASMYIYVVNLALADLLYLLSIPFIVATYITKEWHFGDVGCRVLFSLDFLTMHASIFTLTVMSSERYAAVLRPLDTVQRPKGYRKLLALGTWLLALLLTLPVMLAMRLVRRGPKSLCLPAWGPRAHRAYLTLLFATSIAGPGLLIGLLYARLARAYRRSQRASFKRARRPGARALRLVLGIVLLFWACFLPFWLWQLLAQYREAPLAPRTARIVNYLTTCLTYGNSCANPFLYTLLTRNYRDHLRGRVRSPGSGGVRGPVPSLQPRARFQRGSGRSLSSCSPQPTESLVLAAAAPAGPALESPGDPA

Row | Ki [nM] | SMILES
45 | 251 | CN(C)CCCOc1ccc(CN2CC[C@H](NC(=O)c3ccc(Cl)c(Cl)c3)C2)cc1

— ChEMBL document CHEMBL1140236, “Aminoalkoxybenzyl pyrrolidines as novel human urotensin-II receptor antagonists” (Bioorg Med Chem Lett, 2005)
